This is an account of results in patent publication US12454541B2, “Reagent for measuring oxygen concentration in cell and tissue” (NATIONAL UNIVERSITY CORPORATION GUNMA UNIVERSITY, priority 2019, dated 2025).

Data set [1] is described as follows: Photophysical properties of iridium complexes in a solution (absorption, phosphorescence spectrum, quantum yield, lifetime). It is filed as physicochemical. The conditions noted are these: for maximum absorption wavelength λabs / maximum emission (phosphorescence) wavelength λphos / molecular extinction coefficient ε: in acetonitrile at room temperature; for molecular extinction coefficient ε: at λabs; for phosphorescence lifetime τp / phosphorescence quantum yield Φp: in acetonitrile, under deoxidized conditions. The text has this: Photophysical properties of the phosphorescence of the compound represented by General Formula (I) or (II), such as the maximum absorption/phosphorescence wavelength, the phosphorescence quantum yield (Φp), and the phosphorescence lifetime (τp), can be measured by known measurement methods. For example, the maximum absorption/phosphorescence wavelength can be measured using a spectrophotometer or the like, and the phosphorescence quantum yield can be measured using a luminescence quantum yield measurement apparatus or the like, for a sample in which the compound represented by General Formula (I) or (II) is dissolved in a solvent or the like. Regarding the phosphorescence lifetime, the […] (τp) of the compound in each solvent can be measured using a phosphorescence lifetime measurement apparatus.
Absorption spectrum: ultraviolet and visible spectrophotometer, Ubest-550; manufactured by JASCO Corporation
Phosphorescence spectrum: multichannel spectroscope, PMA-12; manufactured by Hamamatsu Photonics K. K.
Phosphorescence quantum yield: luminescence quantum yield measurement apparatus, C9920-01; manufactured by Hamamatsu Photonics K. K.
Phosphorescence lifetime: compact fluorescence lifetime measurement apparatus, Quantaurus-Tau; manufactured by Hamamatsu Photonics K.K.
The maximum absorption wavelength (λabs) was found at 473 to 499 nm, and the molecular extinction coefficient (ε/dm^3 mol^−1 cm^−1) was not less than 70,000 dm^3 mol^−1 cm^−1. The maximum emission wavelength (λphos) was found at 577 to 622 nm. […] Therefore, the observed luminescence can be identified as a phosphorescence. […] These are higher quantum yields compared to those of the iridium complexes that have been reported so far.

For another data set, the system named is HeLa cells. Nature of the data set: Phosphorescence imaging and microplate-reader phosphorescence intensity of HeLa cells with added iridium complex. It is filed as cell-based. The note with it: for phosphorescence intensity in imaging under oxygen partial pressure of 2.5% (intracellular oxygen responsiveness): HeLa cells, 500 nM, 2 hours culture, 2.5% vs 21% oxygen; for phosphorescence intensity in HeLa cells (comparison between complexes): final concentration 500 nM, 2 hours of culture, imaging and microplate reader. On the procedure:
Luminescence micrograph: inverted research microscope, IX-71; manufactured by Olympus Corporation
(§1) Luminescence intensity, luminescence lifetime: microplate reader, Infinite 200 PRO; manufactured by TECAN.
Using the iridium complexes developed, imaging experiments for living cells were carried out. […] For quantitative evaluation, the phosphorescence intensity was measured using a microplate reader (FIG. 4).
For C6-BEDA and C545T-BEDA, intracellular oxygen responsiveness was evaluated. […] Further, as a result of measurement of the phosphorescence intensity using a microplate reader, it was shown that the phosphorescence intensity increases 3-fold or more under an oxygen partial pressure of 2.5% (FIG. 4).

The subject of the next data set is HT-29 cells. The experiment in a line: Tracing of intracellular oxygen by phosphorescence lifetime of C6-BEDA in HT-29 cells using a plate reader. The class given is cell-based. The conditions noted are these: for change of phosphorescence lifetime of C6-BEDA in cells after additive: C6-BEDA 500 nM, plate sealed with oil, excitation 480 nm, measurement 600 nm; for change of phosphorescence lifetime of C6-BEDA in cells after additive / change of intracellular oxygen partial pressure after additive: antimycin A 10 μM or FCCP 1 μM; for change of intracellular oxygen partial pressure after additive: converted from C6-BEDA phosphorescence lifetime with calibration curve. As to the method: as §1
Using a luminescence lifetime measurement mode of a commercially available plate reader, changes in the oxygen concentration in cells were traced. In a 96-well plate, HT-29 cells were plated at 50,000 cells/well, and cultured for 48 hours. Thereafter, C6-BEDA was added thereto to a final concentration of 500 nM, and culture was carried out for 2 hours. […] After sealing the plate with oil, the phosphorescence lifetime was measured using a plate reader (excitation wavelength, 480 nm; measurement wavelength, 600 nm; FIG. 6). The phosphorescence lifetime (τp/μs) was calculated using the following equation. τp=30/ln(W1/W2)
Here, W1 and W2 are the integrated values of the phosphorescence intensity obtained during the periods of 10 to 30 μs and 40 to 60 μs after the pulse excitation. In the cells to which no additive was added, the phosphorescence lifetime increased with time. […] This is due to the fact that intracellular oxygen consumption was stopped by the respiration inhibitory action of antimycin A, while intracellular oxygen consumption increased by the respiration-promoting action of FCCP. In order to convert the measured phosphorescence lifetime to the oxygen partial pressure, preparation of a calibration curve is necessary. Here, the calibration curve was prepared by measuring the phosphorescence lifetime at different oxygen partial pressures in the plate reader (pO2=1521.03225 exp(−τp/[…])) (FIG. 7).

The next data set deals with kidney of a mouse. The experiment in a line: Phosphorescence intensity and lifetime imaging (PLIM) of kidney of mouse after tail vein administration. It is filed as in vivo. The conditions noted are these: mouse under anesthesia, 250 nmol, excitation 488 nm.
For the next data set, the system named is liver of a mouse. Nature of the data set: Phosphorescence lifetime imaging (PLIM) of liver of mouse after tail vein administration. The conditions noted are these: mouse under anesthesia, 250 nmol, excitation 488 nm. The class given is in vivo. On the procedure: Subsequently, the in vivo dynamics was evaluated. In the present experiment, a microscope capable of acquiring a phosphorescence lifetime image as well as a phosphorescence intensity image (PLIM: phosphorescence lifetime imaging microscope) was used. To the tail vein of a mouse under anesthesia, 250 μL of a solution of C6-MEDA or C6-BEDA (physiological saline:DMSO=9:1, v/v, 250 nmol) was administered to carry out a phosphorescence intensity imaging experiment and a phosphorescence lifetime imaging experiment (excitation wavelength, 488 nm; monitoring wavelength, 510 to 560 nm). […] The liver is composed of functional units called hepatic lobules. Arteries and portal veins are present in the periphery of hepatic lobules, and veins are present in the center. It has thus been pointed out that there is a gradient of the oxygen partial pressure from the periphery to the center. […] It can be seen that the area with a short lifetime (which is blue in the color image) corresponds to the periphery of hepatic lobules, and that the area with a long lifetime (which is orange in the color image) corresponds to the area near the central vein.

For “Bis[3-(benzo[d]thiazol-2-yl)-7-(diethylamino)-2H-chromen-2-one-κN, κC^4]ethane-1,2-diamine iridium(III) hexafluorophosphate [C6-EDA]”, in data set [1], the “maximum absorption wavelength λabs” value stood at 473 nm, the “maximum emission (phosphorescence) wavelength λphos” value (“maximum emission” below) came to 577 nm, the “molecular extinction coefficient ε” value is 91,700 dm^3mol^−1cm^−1 and the “phosphorescence lifetime τp” value is listed as 38.9 μs. For the same compound, in data set [1], the “phosphorescence quantum yield Φp” value is recorded as 0.82.

Take `CC1(C)CCN2CCC(C)(C)c3c2c1cc1[c-]c(-c2nc4ccccc4s2)c(=O)oc31.CC1(C)CCN2CCC(C)(C)c3c2c1cc1[c-]c(-c2nc4ccccc4s2)c(=O)oc31.CCCCNCCNCCCC.F[P-](F)(F)(F)(F)F.[Ir+3]` [C545T-BEDA, Bis[10-(benzo[d]thiazol-2-yl)-1,1,7,7-tetramethyl-2,3,6,7-tetrahydro-1H-pyrano [2,3-f]pyrido[3,2,1-ij]quinolin-11(5H)-one-κN, κC^4]N^1,N^2-dibutylethane-1,2-diamine iridium(III) hexafluorophosphate]: in data set [1], the “maximum absorption wavelength λabs” value is listed as 499 nm, the “maximum emission” value amounted to 622 nm, the “molecular extinction coefficient ε” value is 90,600 dm^3mol^−1cm^−1 and the “phosphorescence lifetime τp” value was found to be 53.7 μs. The “phosphorescence quantum yield Φp” value in data set [1] amounted to 0.40. In the data set with HeLa cells, the “phosphorescence intensity in imaging under oxygen partial pressure of 2.5% (intracellular oxygen responsiveness)” value was “remarkable increases in the phosphorescence intensity” and the “phosphorescence intensity in HeLa cells (comparison between complexes)” value was “exhibit higher phosphorescence intensities”.

For `CC1(C)CCN2CCC(C)(C)c3c2c1cc1[c-]c(-c2nc4ccccc4s2)c(=O)oc31.CC1(C)CCN2CCC(C)(C)c3c2c1cc1[c-]c(-c2nc4ccccc4s2)c(=O)oc31.CNCCNC.F[P-](F)(F)(F)(F)F.[Ir+3]` [C545T-MEDA, Bis[10-(benzo[d]thiazol-2-yl)-1,1,7,7-tetramethyl-2,3,6,7-tetrahydro-1H-pyrano [2,3-f]pyrido[3,2,1-ij]quinolin-11(5H)-one-κN, κC^4]N^1,N^2-dimethylethane-1,2-diamine iridium(III) hexafluorophosphate], in data set [1], the “maximum absorption wavelength λabs” value came out at 496 nm, the “maximum emission” value came out at 621 nm, the “molecular extinction coefficient ε” value is given as 77,000 dm^3mol^−1cm^−1 and the “phosphorescence lifetime τp” value came out at 46.5 μs. Also, the “phosphorescence quantum yield Φp” value in data set [1] is given as 0.36.

For `N#CC(C#N)=NNc1ccc(OC(F)(F)F)cc1` [FCCP], in the data set with HT-29 cells, the “change of phosphorescence lifetime of C6-BEDA in cells after additive” value is “remarkably increased” and the “change of intracellular oxygen partial pressure after additive” value was “rapid decrease in the oxygen partial pressure”.

As to “Bis[3-(benzo[d]thiazol-2-yl)-7-(diethylamino)-2H-chromen-2-one-κN, κC^4]N^1,N^2-dimethylethane-1,2-diamine iridium(III) hexafluorophosphate [C6-MEDA]”, in data set [1], the “maximum absorption wavelength λabs” value stood at 481 nm, the “maximum emission” value stood at 593 nm, the “molecular extinction coefficient ε” value is given as 103,000 dm^3mol^−1cm^−1 and the “phosphorescence lifetime τp” value was 38.7 μs. In addition, the “phosphorescence quantum yield Φp” value in data set [1] was 0.75. For the same compound, in the data set on kidney of a mouse, the imaging of kidney result is listed as “Renal tubular cells could be clearly imaged”.

With “Bis[3-(benzo[d]thiazol-2-yl)-7-(diethylamino)-2H-chromen-2-one-κN, κC^4]N^1,N^2-dibutylethane-1,2-diamine iridium(III) hexafluorophosphate [C6-BEDA]”, in data set [1], the “maximum absorption wavelength λabs” value is 482 nm, the “maximum emission” value is listed as 594 nm, the “molecular extinction coefficient ε” value is recorded as 106,000 dm^3mol^−1cm^−1 and the “phosphorescence lifetime τp” value stood at 34.8 μs. Besides, the “phosphorescence quantum yield Φp” value in data set [1] stood at 0.65. Further, in the data set with HeLa cells, the “phosphorescence intensity in imaging under oxygen partial pressure of 2.5% (intracellular oxygen responsiveness)” value is reported as “remarkable increases in the phosphorescence intensity” and the “phosphorescence intensity in HeLa cells (comparison between complexes)” value is recorded as “exhibit higher phosphorescence intensities”. Also, the “suitability as probe for intracellular oxygen concentration” value with HT-29 cells (500 nM, plate reader) is given as “capable of real-time tracing of changes in the intracellular oxygen concentration”. Also, the “phosphorescence lifetime imaging of liver” value with liver of a mouse was “the presence of the gradient of the phosphorescence lifetime can be seen”.

In the case of antimycin A, in the data set on HT-29 cells, the “change of phosphorescence lifetime of C6-BEDA in cells after additive” value is on record as “hardly changed” and the “change of intracellular oxygen partial pressure after additive” value is reported as “slight increase in the oxygen partial pressure”.
